From paper PMC7463537, “Synthesis and Evaluation of Antimicrobial and Cytotoxic Activity of Oxathiine-Fused Quinone-Thioglucoside Conjugates of Substituted 1,4-Naphthoquinones” (Molecules, 2020)
Read-outs that look alike come from different tables or passages of the source.

Key:
E. coli K-12 = experiment: Agar diffusion method, E. coli; assay type: cell-based, Escherichia coli; details: Escherichia coli, K12; 100 µg/well; read-out: Diameter of Zone Inhibition, E. coli
Experimental: (§1) Elyakov Pacific Institute of Bioorganic Chemistry, Far East Branch, Russian Academy of Sciences. Test substances were dissolved in DMSO at concentrations of 1.0, 0.1, and 0.01 mg/mL. All strains were grown on trypticase-soy agar TSA (BBL) at 37 °C. […] After incubation of the dishes at 37 °C for 24 h (for bacteria) and 48 h (for the fungus) at 28 °C, the diameters of the growth inhibition zones of pathogenic microorganisms (mm) were measured, including the diameter of the wells. Commercial antibacterial drugs (vancomicin and gentamicin) and antifungal (clotrimazol) drugs were used as positive controls.

C. albicans KMM 453 = experiment: Agar diffusion method, C. albicans; assay type: cell-based; details: Candida albicans, KMM453, 48 h, 100 µg/well, 48 h at 28 °C; read-out: Diameter of Zone Inhibition, C. albicans
Experimental: as §1

Solubility in DMSO = assay type: physicochemical; details: did not allow measurement of cytotoxic activity
P. aeruginosa ATCC 27853 = experiment: Agar diffusion method, P. aeruginosa; assay type: cell-based, Pseudomonas aeruginosa; details: for zone of inhibition at 100 µg/disc: Pseudomonas aeruginosa, ATCC27853, 100 µg/well, read-out: Diameter of Zone Inhibition, P. aeruginosa
Experimental: as §1

S. aureus ATCC 21027 [1] = experiment: Agar diffusion method, S. aureus; assay type: cell-based, Staphylococcus aureus; details: Staphylococcus aureus, ATCC21027, 24 h, 100 µg/well, 24 h, incl. 7 mm well; read-out: Diameter of Zone Inhibition, S. aureus
Experimental: as §1

B. cereus ATCC 10702 = experiment: Agar diffusion method, B. cereus; assay type: cell-based, Bacillus cereus; parameters: key to Diameter of Zone Inhibition, B. cereus: Zones within 20–40 mm mean strong antibiotic activity; zones up to 20 mm—moderate; ≤10 mm—weak; +—insignificant; details: 100 µg/well, 24 h, incl. 7 mm well
Experimental: as §1

[2] = system: human cervical cancer (HeLa); experiment: Cytotoxicity, MTT assay, HeLa cells; details: read-out: Cytotoxicity (EC50), HeLa, 24 h
[3] = system: mouse normal epithelial cell line (JB6 Cl 41-5a); experiment: Cytotoxicity, MTT assay, Jb6 Cl 41-5a normal epithelial cells; details: read-out: Cytotoxicity (EC50), Jb6 Cl 41-5a; MTT reagent, 24 h, non-cancer cells
[4] = system: mouse neuroblastoma (Neuro 2a); experiment: Cytotoxicity, MTT assay, Neuro 2a cells; details: read-out: Cytotoxicity (EC50), Neuro 2a, 24 h
[5] = system: mouse ascites Ehrlich carcinoma; experiment: Cytotoxicity, nonspecific esterase (FDA) assay, ascites Ehrlich carcinoma cells; details: read-out: Cytotoxicity (EC50), Ascites Ehrlich Carcinoma, 24 h
in vitro = details: mouse
[6] = Cytotoxicity, statements of the text over all tested cell lines; details: human, mouse
S. aureus ATCC 21027 [7] = experiment: Minimum inhibitory concentration, broth microdilution; assay type: cell-based, Staphylococcus aureus; details: Staphylococcus aureus, ATCC21027; broth microdilution, 24 h; read-out: Minimum inhibitory concentration (MIC) against S. aureus
Experimental: Stocks of substances were prepared in DMSO at a concentration of 10 mM. All studied compounds were tested in concentrations from 1.5 μM to 100 μM using twofold dilution. All tested compounds were add to the wells of the plates in a volume of 20 μL diluted in PBS (DMSO concentration < 1%). The bacterial culture of S. aureus ATCC 21027 (Collection of Marine Microorganisms PIBOC FEB RAS) was cultured in a Petri dish at 37 °C for 24 h on solid medium with the following composition; pepton—5.0 g/L, K2HPO4—0.2 g/L, glucose—1.0 g/L, MgSO4—0.05 g/L, yeast extract—1 g/L, agar—16.0 g/L, and distilled water—1.0 L. The pH of the medium was adjusted to 7.2–7.4 with NaOH solution.
The antimicrobial activity of the compounds was determined by the minimum inhibitory concentration (MIC) according to the method adopted by the Clinical and Laboratory Standards Institute (CLSI). Methods for dilution antimicrobial susceptibility tests for bacteria that grow aerobically followed the approved standard—tenth edition. CLSI document M07-A10, PA: Clinical and Laboratory Standards Institute; 2015, with a slight modification of the medium. The assays were performed in 96-well microplates in appropriate broth (pepton—5.0 g/L, K2HPO4—0.2 g/L, glucose—1.0 g/L, MgSO4—0.05 g/L, yeast extract—1 g/L, casein hydrolyzate—2.5 g/L, distilled water—1L). […] The MIC value is defined as the lowest concentration of compounds resulting in the complete inhibition of bacterial growth by measuring the absorbance at 600 nm with a microplate reader (BioTek, Winooski, Vt, USA). All experiments were performed twice in triplicate. Gentamicin was used as a positive control in concentration 1 mg/mL; 1% DMSO solution in PBS as a negative. The selectivity index for S. aureus has been defined as the ratio of EC50 for normal cells and the MIC value for the bacterial culture (SI = EC50/MIC).

## COc1ccc(OC)c2c1C(=O)C1=C(S[C@@H]3O[C@H](CO)[C@H](O)[C@H](O)[C@H]3O1)C2=O [Compound 17b, (2R,3R,4S,4aR,12aS)-3,4-Dihydroxy-2-hydroxymethyl-7,10-dimethoxy-3,4,4a,12a-tetrahydro-2H-naphtho[2,3-b]pyrano[2,3-e][2,5]oxathiine-6,11-dione]
E. coli K-12
  zone of inhibition at 100 µg/disc: 0 mm
C. albicans KMM 453
  zone of inhibition at 100 µg/disc: 0 mm
other
  melting point: > 350 °C
Solubility in DMSO
  Solubility in DMSO: poor solubility
P. aeruginosa ATCC 27853
  zone of inhibition at 100 µg/disc: 0 mm
S. aureus ATCC 21027 [1]
  zone of inhibition at 100 µg/disc: 0 mm
B. cereus ATCC 10702
  Diameter of Zone Inhibition, B. cereus: +

## C=C(C)CCCC1(C)OC(=O)C23CCC4C(=CCC5C(C)(C)C(OC6OCC(OS(=O)(=O)O)C(O)C6OC6OC(C)C(OC7OC(CO)C(O)C(OC8OC(CO)C(O)C(OC)C8O)C7O)C(O)C6OC6OCC(O)C(O)C6O)CCC45C)C2(C)CC(=O)C13 (stereo not shown) [Cucumarioside A2-2, reference compound]
[2]; MTT reagent
  EC50: 42.4 µM
[3]
  EC50: 15.1 µM
[4]; MTT reagent
  EC50: 37.5 µM
[5]; FDA
  EC50: 18.5 µM

## O=C1C=CC(=O)c2c(O)cccc21 [Juglone, 5-hydroxy-1,4-naphthoquinone, reference compound]
[2]; Homo sapiens, HeLa
  EC50: > 100 µM
E. coli K-12
  zone of inhibition at 100 µg/disc: 0 mm
[4]; N2a
  EC50: > 100 µM
P. aeruginosa ATCC 27853; 100 µg/well
  Diameter of Zone Inhibition, P. aeruginosa: 12 ± 2 mm
P. aeruginosa ATCC 27853
  zone of inhibition at 100 µg/disc: < 20 mm
In vitro
  EC50: > 100 µM
S. aureus ATCC 21027 [1]
  zone of inhibition at 100 µg/disc: 0 mm
B. cereus ATCC 10702; Bacillus cereus, ATCC10702, 24 h, read-out: Diameter of Zone Inhibition, B. cereus
  zone of inhibition at 100 µg/disc: 0 mm
[6]
  EC50 at 24 h: > 100 µM
[5]; Mus musculus, Ehrlich
  EC50: > 100 µM
S. aureus ATCC 21027 [7]
  MIC: > 100 µM
